Measurements published in BindingDB's records for doi:10.1021/jm00376a004 (1984).

Test: Compound was evaluated for average apparent binding constant (Kd ) using Scatchard analysis to dTMP synthetase enzyme from chick embryo

Compound O=c1nc(NO)ccn1[C@H]1C[C@H](O)[C@@H](COP(=O)(O)O)O1 [Phosphoric acid mono-[3-hydroxy-5-(4-hydroxyamino-2-oxo-2H-pyrimidin-1-yl)-tetrahydro-furan-2-ylmethyl] ester] has a Kd of 1000 nM.
